# Data taken from publication PMC7321108, “1-Hydroxyanthraquinones Containing Aryl Substituents as Potent and Selective Anticancer Agents” (Molecules, 2020).
# How the values were obtained:
# [1] = system: MT-4 cells of T-cellular human leucosis; experiment: MTT cytotoxicity assay, MT-4; assay type: cell-based; details: MT4, 72 h incubation, mean ± SEM of three experiments, read-out: Cytotoxicity (GI50) against MT-4
# Experimental: (§1) The cytotoxicity of the synthesized series of 4-substituted 5, 13–17, 22, 23, 2-substituted 25–30 and 2,4-disubstituted 1-hydroxy-9,10-anthraquinones 33–38, 40–45 was evaluated against a panel of seven different human cancer cell lines (glioblastoma cancer cells, human prostate cancer cells, T-cellular human leucosis, breast cancer cells) and also a normal cell line of hTERT-immortalized lung fibroblasts, using conventional MTT assay. Doxorubicin (DOX) is clinically used to treat cancer as drug in world and have a very wide antitumor spectrum. That we use them as positive control compounds. The cytotoxicity was determined by measuring the concentration inhibiting human tumor cell viability by 50% (GI50).
# (§2) The human cancer cells of the glioblastoma (U-87MG, SNB-19, T98G), prostate cancer cell line (LNCAP, DU-145), the cells of T-cellular human leucosis (MT-4) and human breast cancer cells (MDA-MB-231) were used in this study. The cells were cultured in the RPMI-1640 medium that contained 10% embryonic calf serum, L-glutamine (2 mmol/L), gentamicin ([…]) and lincomycin (30 mkg/mL) in a CO2 incubator at 37 °C. The tested compounds were dissolved in DMSO and added to the cellular culture at the required concentrations. Three wells were used for each concentration. The cells which were incubated without the compounds were used as a control. Cells were placed on 96-well microliter plates and cultivated at 37 °C in 5% CO2/95% air for 72 h. The cell viability was assessed through an MTT [3-(4,5-dimethylthiazol-2-yl)-[…]-2H-tetrazolium bromide] conversion assay. A total of 1% MTT was added to each well. Four hours later, DMSO was added and mixed for 15 min. Optical density (D) of the samples was measured on a BioRad 680 multi-well spectrophotometer (USA) at the wavelength of 450 nm. The 50% cytotoxic dose GI50) of each compound (i.e., the compound concentration that causes the death of 50% of cells in a culture, or decreases the optical density twice as compared to the control wells) was calculated from the data obtained. Statistical processing of the results was performed using the Microsoft Excel-2007, […] 6.0 and GraphPad Prism 5.0 programs. The results are given as an average value ± a deviation from the average (mean ± standard error of the mean (SEM)). Reliability of differences (p) was estimated using the Student t test. The differences with p < 0.05 were considered as reliable. The experimental results are given as the data average values obtained from three independently conducted experiments.
# [2] = system: MDA-MB-231 breast cancer cells; experiment: MTT cytotoxicity assay, MDA-MB-231; assay type: cell-based; details: Homo sapiens, 72 h incubation, mean ± SEM of three experiments, read-out: Cytotoxicity (GI50) against MDA-MB-231
# Experimental: as §1, §2
# [3] = MTT cytotoxicity assay, normal hTERT-immortalized lung fibroblasts; assay type: cell-based; details: human, hTERT-immortalized lung fibroblasts (normal cell line), 72 h incubation, mean ± SEM of three experiments, read-out: Cytotoxicity (GI50) against hTERT Lung Fibroblasts
# Experimental: as §1, §2
# [4] = system: U-87MG glioblastoma cells; experiment: MTT cytotoxicity assay, U-87MG; assay type: cell-based; details: Homo sapiens, 72 h incubation, mean ± SEM of three experiments, read-out: Cytotoxicity (GI50) against U-87MG
# Experimental: as §1, §2
# [5] = system: LNCAP prostate cancer cells; experiment: MTT cytotoxicity assay, LNCAP; assay type: cell-based, human; details: Homo sapiens, LNCaP, 72 h, 72 h incubation, mean ± SEM of three experiments, read-out: Cytotoxicity (GI50) against LNCAP
# Experimental: as §1, §2
# [6] = system: DU-145 prostate cancer cells; experiment: MTT cytotoxicity assay, DU-145; assay type: cell-based, human; details: Homo sapiens, DU-145, 72 h, 72 h incubation, mean ± SEM of three experiments, read-out: Cytotoxicity (GI50) against DU-145
# Experimental: as §1, §2
# [7] = system: SNB-19 glioblastoma cells; experiment: MTT cytotoxicity assay, SNB-19; assay type: cell-based; details: Homo sapiens, 72 h incubation, mean ± SEM of three experiments, read-out: Cytotoxicity (GI50) against SNB-19
# Experimental: as §1, §2
# T98G glioblastoma cells = experiment: MTT cytotoxicity assay, T98G; assay type: cell-based; details: Homo sapiens, 72 h incubation, mean ± SEM of three experiments, read-out: Cytotoxicity (GI50) against T98G
# Experimental: as §1, §2
SMILES,GI50 [1],GI50 [2],GI50 at 72 h [3],GI50 [4],GI50 [5],GI50 [6],melting point,GI50 [7],GI50 (T98G glioblastoma cells)
"O=C1c2ccccc2C(=O)c2c1ccc(-c1cc(C(F)(F)F)ccc1Cl)c2O [Compound 30, 2-(2-Chloro-5-(trifluoromethyl)phenyl)-1-hydroxyanthracene-9,10-dione]",55.1 ± 3.24 µM,39.1 ± 1.71 µM,25.6 ± 5.24 µM,21.6 ± 1.42 µM,> 100 µM,12.5 ± 3.17 µM,188.5 °C (dec.),16.8 ± 2.11 µM,39.2 ± 1.65 µM
"COc1cc(-c2cc(-c3ccccc3)c3c(c2O)C(=O)c2ccccc2C3=O)cc(OC)c1OC [Compound 43, 1-Hydroxy-4-phenyl-2-(3,4,5-trimethoxyphenyl)anthracene-9,10-dione]",> 100 µM,17.1 ± 1.55 µM,34.1 ± 0.92 µM,> 100 µM,> 100 µM,18.6 ± 2.45 µM,60.4 °C (dec.),19.2 ± 2.52 µM,16.1 ± 0.78 µM
"Cc1ccccc1-c1cc(-c2ccccc2C)c2c(c1O)C(=O)c1ccccc1C2=O [Compound 34, 1-Hydroxy-2,4-di-o-tolylanthracene-9,10-dione]",> 100 µM,> 100 µM,72.2 ± 4.18 µM,> 100 µM,> 100 µM,> 100 µM,119.8 °C (dec.),> 100 µM,> 100 µM
"Cc1ccccc1-c1ccc(O)c2c1C(=O)c1ccccc1C2=O [Compound 14, 1-Hydroxy-4-(o-tolyl)anthracene-9,10-dione]",65 ± 5.49 µM,> 100 µM,> 100 µM,> 100 µM,92 ± 3.93 µM,41.1 ± 3.34 µM,,38.1 ± 1.15 µM,> 100 µM
"COc1cccc(-c2cc(-c3cccc(OC)c3OC)c3c(c2O)C(=O)c2ccccc2C3=O)c1OC [Compound 36, 2,4-Di-(2,3-dimethoxyphenyl)-1-hydroxyanthracene-9,10-dione]",25.8 ± 0.94 µM,22.6 ± 0.86 µM,12.2 ± 2.08 µM,36.8 ± 1.42 µM,16.7 ± 1.86 µM,10.6 ± 1.12 µM,192.9 °C (dec.),37 ± 1.41 µM,15.5 ± 0.92 µM
"O=C1c2ccccc2C(=O)c2c(-c3ccco3)ccc(O)c21 [Compound 22, 1-(Furan-2-yl)-4-hydroxyanthracene-9,10-dione]",> 100 µM,> 100 µM,52.2 ± 8.01 µM,> 100 µM,21.1 ± 0.85 µM,24.2 ± 1.32 µM,141.8 °C (dec.),> 100 µM,> 100 µM
"COc1cc(-c2cc(-c3cc(OC)c(OC)c(OC)c3)c3c(c2O)C(=O)c2ccccc2C3=O)cc(OC)c1OC [Compound 32, 1-Hydroxy-2,4-di-(3,4,5-trimethoxyphenyl)anthracene-9,10-dione]",,,,,,,214.9 °C (dec.),,
"COc1ccc(-c2cc(Br)c3c(c2O)C(=O)c2ccccc2C3=O)cc1 [Compound 40, 4-Bromo-1-hydroxy-2-(4-methoxyphenyl)anthracene-9,10-dione]",35.6 ± 3.28 µM,10.5 ± 1.03 µM,16.5 ± 0.46 µM,10.2 ± 1.03 µM,22.2 ± 1.26 µM,7.1 ± 0.72 µM,187.1 °C (dec.),6.1 ± 0.38 µM,8.1 ± 0.98 µM
"O=C1c2ccccc2C(=O)c2c(O)c(-c3ccccc3)cc(-c3ccccc3)c21 [Compound 33, 1-Hydroxy-2,4-diphenylanthracene-9,10-dione]",> 100 µM,28.3 ± 1.06 µM,52.8 ± 8.05 µM,56.8 ± 2.36 µM,21.3 ± 1.16 µM,> 100 µM,225 to 228 °C,18.3 ± 1.12 µM,24.6 ± 0.85 µM
"O=C1c2ccccc2C(=O)c2c(O)c(-c3ccc(Cl)cc3C(F)(F)F)cc(-c3ccc(Cl)cc3C(F)(F)F)c21 [Compound 39, 2,4-Di-(4-Chloro-2-(trifluoromethyl)phenyl)-1-hydroxyanthracene-9,10-dione]",,,,,,,150 to 152 °C,,
"O=C1c2ccccc2C(=O)c2c(-c3cc(F)cc(F)c3)ccc(O)c21 [Compound 17, 1-(3,5-Difluorophenyl)-4-hydroxyanthracene-9,10-dione]",38.3 ± 3.16 µM,9.6 ± 0.69 µM,26.6 ± 2.44 µM,8.2 ± 1.35 µM,16.7 ± 1.34 µM,3.5 ± 0.96 µM,214.2 to 214.3 °C,10.2 ± 0.86 µM,9.2 ± 0.56 µM
"O=C1c2ccccc2C(=O)c2c(-c3ccc(Cl)cc3C(F)(F)F)ccc(O)c21 [Compound 19, 1-(4-Chloro-2-(trifluoromethyl)phenyl)-4-hydroxyanthracene-9,10-dione]",,,,,,,186 °C (dec.),,
"COc1ccc(-c2cc(-c3cc(OC)c(OC)c(OC)c3)c(O)c3c2C(=O)c2ccccc2C3=O)cc1 [Compound 44, 1-Hydroxy-4-(4-methoxyphenyl)-2-(3,4,5-trimethoxyphenyl)anthracene-9,10-dione]",40.5 ± 6.44 µM,19.1 ± 0.98 µM,36.2 ± 1.31 µM,> 100 µM,14.2 ± 3.12 µM,15.2 ± 1.06 µM,,41.8 ± 5.27 µM,16.5 ± 1.26 µM
"O=C1c2ccccc2C(=O)c2c(-c3cc(C(F)(F)F)ccc3Cl)ccc(O)c21 [Compound 18, 1-(2-Chloro-5-(trifluoromethyl)phenyl)-4-hydroxyanthracene-9,10-dione]",,,,,,,184.3 °C (dec.),,
"O=C1c2ccccc2C(=O)c2c(O)c(-c3cc(C(F)(F)F)ccc3Cl)cc(-c3cc(C(F)(F)F)ccc3Cl)c21 [Compound 38, 2,4-Di-(2-chloro-5-(trifluoromethyl)phenyl)-1-hydroxyanthracene-9,10-dione]",> 100 µM,32.5 ± 5.37 µM,19.4 ± 0.97 µM,> 100 µM,> 100 µM,6.5 ± 0.89 µM,,39.4 ± 2.16 µM,7.8 ± 0.56 µM
"COc1cc(-c2ccc3c(c2O)C(=O)c2ccccc2C3=O)cc(OC)c1OC [Compound 24, 1-Hydroxy-2-(3,4,5-trimethoxyphenyl)anthracene-9,10-dione]",,,,,,,190.1 °C (dec.),,
